“And” between values parts separate entries of the source, which are not always exact repeats. Equal values may be shown once. Inconclusive results and toxic doses are left out.

The experiment concerns CD2F1 mice, L1210 leukemia ip, survival T/C. Kind of experiment: NCI In Vivo Anticancer Drug Screen. Data for tumor model L1210 Leukemia (intraperitoneal) in CD2F1 (CDF1) mice. To be noted: higher = longer survival. A digest of the protocol:
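In this screen, transplantable tumors were grown in mice given either the compound or its vehicle. Results were expressed as the treated measurement relative to the control measurement.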

Where [1] appears, read: endpoint: mean survival time, dose: 50.0 mg/kg/injection, schedule: Q01DX009 (ip), vehicle: saline with Tween-80.
Where [2] appears, read: endpoint: mean survival time, dose: 100.0 mg/kg/injection, schedule: Q01DX009 (ip), vehicle: saline with Tween-80.
The mark [3] stands for this setting: endpoint: mean survival time, dose: 200.0 mg/kg/injection, schedule: Q01DX009 (ip), vehicle: saline with Tween-80.
Where [4] appears, read: endpoint: mean survival time, dose: 100.0 mg/kg/injection, schedule: Q04DX003 (ip), vehicle: saline with Tween-80.
The mark [5] stands for this setting: endpoint: mean survival time, dose: 200.0 mg/kg/injection, schedule: Q04DX003 (ip), vehicle: saline with Tween-80.
The mark [6] stands for this setting: endpoint: mean survival time, dose: 400.0 mg/kg/injection, schedule: Q04DX003 (ip), vehicle: saline with Tween-80.
Setting [7] is: endpoint: mean survival time, dose: 100.0 mg/kg/injection, schedule: Q04DX003 (ip), vehicle: saline.
Where [8] appears, read: endpoint: mean survival time, dose: 200.0 mg/kg/injection, schedule: Q04DX003 (ip), vehicle: saline.
[9] abbreviates: endpoint: mean survival time, dose: 400.0 mg/kg/injection, schedule: Q04DX003 (ip), vehicle: saline.
The mark [10] stands for this setting: endpoint: mean survival time, dose: 400.0 mg/kg/injection, schedule: Q01DX009 (ip), vehicle: saline with Tween-80.

As for `CCCOS(=O)(=O)O`, the T/C runs as follows: (endpoint: mean survival time, dose: 100.0 mg/kg/injection, schedule: Q01DX001 (ip), vehicle: saline) 106 % of control; (endpoint: mean survival time, dose: 200.0 mg/kg/injection, schedule: Q01DX001 (ip), vehicle: saline) 102 % of control; (endpoint: mean survival time, dose: 400.0 mg/kg/injection, schedule: Q01DX001 (ip), vehicle: saline) 106 % of control.
As to `C/C=C(\C)C(=O)N/N=C\c1cc(Cl)cc(Cl)c1O`, the T/C by setting is: (endpoint: mean survival time, dose: 12.5 mg/kg/injection, schedule: Q01DX009 (ip), vehicle: olive oil, sesame oil, peanut oil) 100 % of control; (endpoint: mean survival time, dose: 25.0 mg/kg/injection, schedule: Q01DX009 (ip), vehicle: olive oil, sesame oil, peanut oil) 96 % of control; (endpoint: mean survival time, dose: 50.0 mg/kg/injection, schedule: Q01DX009 (ip), vehicle: olive oil, sesame oil, peanut oil) 94 % of control; (endpoint: mean survival time, dose: 100.0 mg/kg/injection, schedule: Q01DX009 (ip), vehicle: olive oil, sesame oil, peanut oil) 98 % of control; (endpoint: mean survival time, dose: 200.0 mg/kg/injection, schedule: Q01DX009 (ip), vehicle: olive oil, sesame oil, peanut oil) 98 % of control; (endpoint: mean survival time, dose: 400.0 mg/kg/injection, schedule: Q01DX009 (ip), vehicle: olive oil, sesame oil, peanut oil) 100 % of control.
Take `[Br][Ge]([c]1ccccc1)([c]1ccccc1)[c]1ccccc1`: the T/C is, setting by setting: under setting [1], 91 % of control; under setting [2], 91 % of control; under setting [3], 86 % of control.
For `O=C1CNC(c2ccccc2)C(c2ccccc2)N1` (stereo not drawn), the T/C under setting [4] is 100 % of control, the T/C under setting [5] is 102 % of control and the T/C under setting [6] was 101 % of control.
In the case of `N#CNC=Nc1ccccc1`, the T/C under setting [7] is 95 % of control, the T/C under setting [8] was 95 % of control and the T/C under setting [9] is 100 % of control.
For the compound `O=C(Nc1cc(S(=O)(=O)O)cc2cc(S(=O)(=O)O)c(N=Nc3ccc([As](=O)(O)O)cc3)c(O)c12)c1ccc([N+](=O)[O-])cc1`, the T/C runs as follows: (endpoint: mean survival time, dose: 12.5 mg/kg/injection, schedule: Q04DX002 (ip), vehicle: saline) 101 % of control; (endpoint: mean survival time, dose: 25.0 mg/kg/injection, schedule: Q04DX002 (ip), vehicle: saline) 94 % of control; (endpoint: mean survival time, dose: 50.0 mg/kg/injection, schedule: Q04DX002 (ip), vehicle: saline) 94 % of control.
With `CSCCSC`, the T/C was 104 % of control (endpoint: mean survival time, dose: 100.0 mg/kg/injection, schedule: Q01DX001 (ip), vehicle: saline with Tween-80); 98 % of control (endpoint: mean survival time, dose: 200.0 mg/kg/injection, schedule: Q01DX001 (ip), vehicle: saline with Tween-80); 96 % of control (endpoint: mean survival time, dose: 400.0 mg/kg/injection, schedule: Q01DX001 (ip), vehicle: saline with Tween-80).
As for `Cn1c(-[n+]2ccccc2)nc2c1c(=O)[nH]c(=O)n2C`, the T/C runs as follows: (endpoint: mean survival time, dose: 12.5 mg/kg/injection, schedule: Q01DX005 (ip), vehicle: water) 100 % of control; (endpoint: mean survival time, dose: 25.0 mg/kg/injection, schedule: Q01DX005 (ip), vehicle: water) 102 % of control; (endpoint: mean survival time, dose: 50.0 mg/kg/injection, schedule: Q01DX005 (ip), vehicle: water) 97 % of control; (endpoint: mean survival time, dose: 100.0 mg/kg/injection, schedule: Q01DX005 (ip), vehicle: water) 94 % of control; (endpoint: mean survival time, dose: 200.0 mg/kg/injection, schedule: Q01DX005 (ip), vehicle: water) 102 % of control.
Turning to `NCCS/C=C/C(=O)Oc1ccc(Br)cc1`, the T/C under setting [4] was 103 % of control and the T/C under setting [5] was 96 % of control.
In the case of `Cn1c(C(N)=O)cc(=O)n1-c1ccccc1`, the T/C (endpoint: mean survival time, dose: 100.0 mg/kg/injection, schedule: Q01DX001 (ip), vehicle: saline sonified) is 102 % of control; the T/C under setting [2] was 107 % of control; the T/C (endpoint: mean survival time, dose: 200.0 mg/kg/injection, schedule: Q01DX001 (ip), vehicle: saline sonified) is 96 % of control; the T/C under setting [3] was 103 % of control; the T/C (endpoint: mean survival time, dose: 400.0 mg/kg/injection, schedule: Q01DX001 (ip), vehicle: saline sonified) was 98 % of control; the T/C under setting [10] was 105 % of control.
In the case of `CC(=O)NC1CCCC(O)C1` (stereo not drawn), the T/C reads like this: under setting [7], 102 % of control; under setting [8], 95 % of control; under setting [9], 101 % of control.
For the compound `COc1ccc(/C=C2/SC(=S)NC2=O)c(OC)c1OC`, the T/C is, setting by setting: (endpoint: mean survival time, dose: 75.0 mg/kg/injection, schedule: Q01DX001 (ip), vehicle: other) 103 % of control; (endpoint: mean survival time, dose: 150.0 mg/kg/injection, schedule: Q01DX001 (ip), vehicle: other) 92 % of control; (endpoint: mean survival time, dose: 300.0 mg/kg/injection, schedule: Q01DX001 (ip), vehicle: other) 103 % of control.
Consider `Nc1nc(F)nc2c1ncn2C1OC(COC=O)C(OC=O)C1O` (stereo not drawn) (tested in a mixture with another compound), for which the T/C is 205 % of control (endpoint: mean survival time, dose: 100.0 mg/kg/injection, schedule: Q01DX009 (ip), vehicle: saline); 243 % of control and 419 % of control (endpoint: mean survival time, dose: 125.0 mg/kg/injection, schedule: Q01DX009 (ip), vehicle: saline); 512 % of control (endpoint: mean survival time, dose: 150.0 mg/kg/injection, schedule: Q01DX009 (ip), vehicle: saline with Tween-80); 288 % of control and 370 % of control (endpoint: mean survival time, dose: 150.0 mg/kg/injection, schedule: Q01DX009 (ip), vehicle: saline); 163 % of control (endpoint: mean survival time, dose: 175.0 mg/kg/injection, schedule: Q01DX005 (ip), vehicle: saline with Tween-80); 551 % of control (endpoint: mean survival time, dose: 175.0 mg/kg/injection, schedule: Q01DX009 (ip), vehicle: saline with Tween-80). For the same compound, the T/C runs as follows: (endpoint: mean survival time, dose: 175.0 mg/kg/injection, schedule: Q01DX009 (ip), vehicle: saline) 318 % of control; (endpoint: mean survival time, dose: 200.0 mg/kg/injection, schedule: Q01DX005 (ip), vehicle: saline with Tween-80) 179 % of control; under setting [3], 298 % of control; (endpoint: mean survival time, dose: 250.0 mg/kg/injection, schedule: Q01DX009 (ip), vehicle: saline with Tween-80) 189 % of control.
As for `Nc1ccn(C2OC(CO)C(O)C2Br)c(=O)n1` (stereo not drawn), the T/C runs as follows: (endpoint: median survival time, dose: 12.5 mg/kg/injection, schedule: Q01DX005 (ip), vehicle: saline) 108 % of control; (endpoint: median survival time, dose: 25.0 mg/kg/injection, schedule: Q01DX005 (ip), vehicle: saline) 107 % of control; (endpoint: median survival time, dose: 50.0 mg/kg/injection, schedule: Q01DX005 (ip), vehicle: Klucel (hydroxypropylcellulose) (HPC)) 118 % of control; (endpoint: median survival time, dose: 50.0 mg/kg/injection, schedule: Q01DX005 (ip), vehicle: saline) 119 % of control; (endpoint: median survival time, dose: 200.0 mg/kg/injection, schedule: Q01DX005 (ip), vehicle: saline) 150 % of control.
For the compound `CCCC(C#N)OC(=O)c1ccccc1` (stereo not drawn), the T/C is, setting by setting: (endpoint: mean survival time, dose: 25.0 mg/kg/injection, schedule: Q01DX009 (ip), vehicle: saline with Tween-80) 96 % of control; under setting [1], 104 % of control; under setting [4], 101 % of control.
`CSc1nnc(SC)c(SC)n1`: the T/C (endpoint: mean survival time, dose: 75.0 mg/kg/injection, schedule: Q01DX001 (ip), vehicle: saline) was 96 % of control.
Take `O=C(NC(=S)Nc1ccccc1C(=O)O)c1ccccc1`: the T/C is 103 % of control (endpoint: mean survival time, dose: 66.0 mg/kg/injection, schedule: Q01DX009 (ip), vehicle: saline sonified); 103 % of control (endpoint: mean survival time, dose: 100.0 mg/kg/injection, schedule: Q01DX009 (ip), vehicle: saline sonified); 103 % of control (endpoint: mean survival time, dose: 150.0 mg/kg/injection, schedule: Q01DX009 (ip), vehicle: saline sonified).
For `Cc1ccc(N2CCN(CCCCCC(=O)O)CC2)cc1Cl`, the T/C is 106 % of control under setting [4]; 117 % of control (endpoint: mean survival time, dose: 176.0 mg/kg/injection, schedule: Q04DX003 (ip), vehicle: saline with Tween-80); 104 % of control under setting [5]; 113 % of control (endpoint: mean survival time, dose: 264.0 mg/kg/injection, schedule: Q04DX003 (ip), vehicle: saline with Tween-80).
For `CS(=O)(=O)OC1C(OC(=O)OCc2ccccc2)C2COC(O2)C1OC(=O)OCc1ccccc1` (stereo not drawn), the T/C under setting [2] was 92 % of control, the T/C under setting [3] is 92 % of control and the T/C under setting [10] was 89 % of control.
For the compound `CCOC(=O)c1c(F)c(F)c(Oc2c(F)c(F)c(F)c(F)c2F)c(F)c1F`, the T/C is, setting by setting: under setting [4], 86 % of control; under setting [5], 96 % of control; under setting [6], 92 % of control.
As to `CCOC(=O)NCCB(O)O`, the T/C (endpoint: mean survival time, dose: 100.0 mg/kg/injection, schedule: Q04DX002 (ip), vehicle: saline) is 100 % of control; the T/C (endpoint: mean survival time, dose: 200.0 mg/kg/injection, schedule: Q04DX002 (ip), vehicle: saline) was 88 % of control; the T/C (endpoint: mean survival time, dose: 400.0 mg/kg/injection, schedule: Q04DX002 (ip), vehicle: saline) was 95 % of control.

The values above are taken from PubChem BioAssay AID256 (DTP/NCI, 2004).
